These results are taken from US12570659B2, “Bicyclic heteroaryl compounds useful as IRAK4 inhibitors” (BRISTOL-MYERS SQUIBB COMPANY, priority 2019, dated 2026).

pIC50: −log10 of the molar value.

One assay addresses JAK3 kinase (Homo sapiens (Human), UniProt P52333). The assay is described as follows: JAK3 Homogeneous Time Resolved Fluorescence (HTRF) Assay. The assay is classed as binding. The following applies: for pIC50: competition binding with fluorescein-labeled ATP competitive probe; for Ratio of JAK3 IC50 to IRAK4 IC50: selectivity for IRAK4 over JAK3. In a few lines:
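TR-FRET competition binding: 1 nM His- or GST-tagged JAK3 with 0.2 nM Tb-labeled anti-tag antibody, fluorescein ATP-competitive probe at its Kd, and compound for one hour. FRET read at 495/520 nm, normalized to no-compound signal. IC50 from 11 concentrations, 4-parameter logistic fit.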
For orientation: TR-FRET usually uses a lanthanide donor and a delayed reading to cut background.

The subject of assay [1] is TLR2 agonist-stimulated IL-6 in human whole blood. Description: IRAK4 Whole Blood Assay. The class given is cell-based. To be noted: lipoteichoic acid 10 μg/mL, 5 hours, IL-6 levels. Here is the method:
Human whole blood containing the anti-coagulant ACD-A was plated in 384-well plate (25 μL/well) and incubated with compounds for 60 minutes at 37° C. in a 5% CO2 incubator. The blood was stimulated with a TLR2 agonist, 10 μg/mL final concentration of lipoteichoic acid (Invivogen, San Diego, CA) in 25 μL RPMI (Gibco) for 5 hours in a 5% CO2 incubator. At the end of the incubation, plates were centrifuged at 2300 rpm for 5 minutes. Supernatants were harvested and analyzed for IL-6 levels by Flow Cytometry beads assay (BD Biosciences, San Jose, CA).

A further assay addresses IRAK4 (Homo sapiens (Human), UniProt Q9NWZ3). The assay is described as follows: IRAK4 Inhibition Assay. The assay is classed as biochemical. The following applies: ATP 500 μM; IRAK4 0.6 nM; 60 min room temperature. Put shortly:
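Reaction started by combining IRAK4 with substrates and compound, run 60 min at room temperature and stopped with 35 mM EDTA. Fluorescent substrate and phosphorylated product were separated electrophoretically on a Caliper LabChip; inhibition normalized to no-enzyme (100%) and vehicle-only (0%) controls.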

Chain of JAK3 kinase (P52333 whole entry): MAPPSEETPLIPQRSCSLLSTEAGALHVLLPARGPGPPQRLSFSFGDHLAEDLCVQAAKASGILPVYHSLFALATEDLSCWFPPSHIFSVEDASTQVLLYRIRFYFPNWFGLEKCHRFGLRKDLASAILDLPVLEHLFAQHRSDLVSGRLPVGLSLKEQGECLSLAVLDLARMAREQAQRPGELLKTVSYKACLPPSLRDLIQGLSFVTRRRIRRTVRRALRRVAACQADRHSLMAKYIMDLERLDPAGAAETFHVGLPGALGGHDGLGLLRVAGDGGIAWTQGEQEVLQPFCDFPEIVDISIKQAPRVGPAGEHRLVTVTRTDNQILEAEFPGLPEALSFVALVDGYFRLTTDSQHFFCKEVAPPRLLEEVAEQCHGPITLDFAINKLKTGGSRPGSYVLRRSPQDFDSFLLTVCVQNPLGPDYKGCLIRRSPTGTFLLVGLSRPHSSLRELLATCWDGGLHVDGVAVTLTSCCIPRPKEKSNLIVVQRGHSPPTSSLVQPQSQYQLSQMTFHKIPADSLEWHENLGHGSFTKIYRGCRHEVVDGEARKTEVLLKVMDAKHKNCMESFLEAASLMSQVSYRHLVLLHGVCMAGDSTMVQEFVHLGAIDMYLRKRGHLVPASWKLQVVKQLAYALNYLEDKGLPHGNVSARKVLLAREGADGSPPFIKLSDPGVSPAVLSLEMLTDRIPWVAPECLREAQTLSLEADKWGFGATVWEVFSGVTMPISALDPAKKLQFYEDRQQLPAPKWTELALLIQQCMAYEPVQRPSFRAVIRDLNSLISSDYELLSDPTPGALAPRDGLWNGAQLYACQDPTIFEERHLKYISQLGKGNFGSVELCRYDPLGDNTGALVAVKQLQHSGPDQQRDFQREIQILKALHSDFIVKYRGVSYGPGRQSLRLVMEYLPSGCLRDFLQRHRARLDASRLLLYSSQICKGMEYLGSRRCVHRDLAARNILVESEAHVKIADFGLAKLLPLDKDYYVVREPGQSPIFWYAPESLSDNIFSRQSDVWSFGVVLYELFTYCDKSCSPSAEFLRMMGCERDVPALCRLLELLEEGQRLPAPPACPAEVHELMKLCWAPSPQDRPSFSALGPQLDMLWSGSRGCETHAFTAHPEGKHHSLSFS
Chain of IRAK4 (Q9NWZ3 whole entry, species assumed): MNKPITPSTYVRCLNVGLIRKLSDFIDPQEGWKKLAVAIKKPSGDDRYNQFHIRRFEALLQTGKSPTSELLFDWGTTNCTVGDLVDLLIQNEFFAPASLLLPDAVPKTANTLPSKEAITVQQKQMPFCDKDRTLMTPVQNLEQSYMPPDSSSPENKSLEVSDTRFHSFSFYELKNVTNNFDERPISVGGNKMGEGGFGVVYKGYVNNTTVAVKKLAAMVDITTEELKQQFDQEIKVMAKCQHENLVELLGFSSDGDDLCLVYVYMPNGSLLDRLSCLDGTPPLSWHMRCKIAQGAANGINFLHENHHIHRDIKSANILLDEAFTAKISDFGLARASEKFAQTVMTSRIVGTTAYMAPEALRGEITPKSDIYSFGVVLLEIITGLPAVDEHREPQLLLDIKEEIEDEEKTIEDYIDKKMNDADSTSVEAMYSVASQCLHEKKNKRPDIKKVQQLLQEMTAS

What is called pIC50 is −log10 of the IC50, conventionally taken in molar units. Take `CC(=O)N[C@H]1CC[C@H](NC(=O)c2cnn3cc(-c4cnccc4C)cc3c2NC(C)C)CC1` [Example 70, N-((1r,4r)-4-acetamidocyclohexyl)-4-(isopropylamino)-6-(4-methylpyridin-3-yl)pyrrolo[1,2-b] pyridazine-3-carboxamide]: the pIC50 is under 4.30 at JAK3 kinase, under 5.00 in assay [1] and 7.85 at IRAK4. Moreover, on JAK3 kinase, the “Ratio of JAK3 IC50 to IRAK4 IC50” value was over 3571.

With `CC(C)Nc1c(C(=O)NCCN2CCOCC2)cnn2cc(-c3ccncc3F)cc12` [Example 71, 6-(3-fluoropyridin-4-yl)-4-(isopropylamino)-N-(2-morpholinoethyl)pyrrolo[1,2-b]pyridazine-3-carboxamide], the pIC50 at JAK3 kinase is 5.15; in assay [1], under 5.00; at IRAK4, 8.14. Also, at JAK3 kinase, the “Ratio of JAK3 IC50 to IRAK4 IC50” value turned out to be 972.

For the compound `CC(=O)N[C@H]1CC[C@H](NC(=O)c2cnn3cc(-c4ccc(CO)nc4)cc3c2NC(C)C)CC1` [Example 73, N-((1r,4r)-4-acetamidocyclohexyl)-6-(6-(hydroxymethyl)pyridin-3-yl)-4-(isopropylamino)pyrrolo[1,2-b]pyridazine-3-carboxamide], the pIC50 on JAK3 kinase was under 4.30; in assay [1], 6.19; on IRAK4, 8.51. In addition, the “Ratio of JAK3 IC50 to IRAK4 IC50” value at JAK3 kinase is reported as over 16129.

Regarding `CC(=O)N[C@H]1CC[C@H](NC(=O)c2cnn3c(Cl)c(-c4ccncc4)cc3c2NC(C)C)CC1` [Example 80, N-((1r,4r)-4-acetamidocyclohexyl)-7-chloro-4-(isopropylamino)-6-(pyridin-4-yl)pyrrolo[1,2-b]pyridazine-3-carboxamide], the pIC50 at JAK3 kinase was about 4.46; in assay [1], 6.14; at IRAK4, 8.70. Besides, the “Ratio of JAK3 IC50 to IRAK4 IC50” value at JAK3 kinase was about 17500.

As for `CC(=O)N[C@H]1CC[C@H](NC(=O)c2cnn3cc(-c4ccc(C#N)cc4)cc3c2NC(C)C)CC1` [Example 81, N-((1r,4r)-4-acetamidocyclohexyl)-6-(4-cyanophenyl)-4-(isopropylamino)pyrrolo[1,2-b]pyridazine-3-carboxamide], the pIC50 on JAK3 kinase is under 4.30; in assay [1], under 4.70; at IRAK4, 7.92. Besides, at JAK3 kinase, the “Ratio of JAK3 IC50 to IRAK4 IC50” value is reported as over 4167.

On to `CC(C)Nc1c(C(=O)N[C@H]2CC[C@H](C(=O)N3CCOCC3)CC2)cnn2cc(-c3ccncc3F)cc12` [Example 84, 6-(3-fluoropyridin-4-yl)-4-(isopropylamino)-N-((1r,4r)-4-(morpholine-4-carbonyl)cyclohexyl)pyrrolo[1,2-b]pyridazine-3-carboxamide], for which the pIC50 at JAK3 kinase is under 4.30; in assay [1], 5.98; at IRAK4, 8.57. Also, at JAK3 kinase, the “Ratio of JAK3 IC50 to IRAK4 IC50” value is listed as over 18519.

In the case of `CC(C)Nc1c(C(=O)NC2CCN(S(C)(=O)=O)CC2)cnn2cc(-c3ccc(F)nc3)cc12` [Example 85, 6-(6-fluoropyridin-3-yl)-4-(isopropylamino)-N-(1-(methylsulfonyl)piperidin-4-yl)pyrrolo[1,2-b]pyridazine-3-carboxamide], the figures for the pIC50 (at JAK3 kinase; in assay [1]; on IRAK4) were about 4.51, 6.06 and 8.60, respectively. Also, at JAK3 kinase, the “Ratio of JAK3 IC50 to IRAK4 IC50” value was about 12400.

For the compound `CNC(=O)[C@H]1CC[C@H](NC(=O)c2cnn3cc(-c4ccncc4F)cc3c2NC(C)C)CC1` [Example 87, 6-(3-fluoropyridin-4-yl)-4-(isopropylamino)-N-((1r,4r)-4-(methylcarbamoyl)cyclohexyl) pyrrolo[1,2-b]pyridazine-3-carboxamide], the results for the pIC50 (at JAK3 kinase; in assay [1]; at IRAK4) were under 4.30, 6.59 and 8.51, respectively. Moreover, on JAK3 kinase, the “Ratio of JAK3 IC50 to IRAK4 IC50” value is reported as over 16129.

On to `Cc1cc(F)ncc1-c1cc2c(NC(C)C)c(C(=O)N[C@H]3CC[C@H](C(N)=O)CC3)cnn2c1` [Example 88, N-((1r,4r)-4-carbamoylcyclohexyl)-6-(6-fluoro-4-methylpyridin-3-yl)-4-(isopropylamino)pyrrolo[1,2-b]pyridazine-3-carboxamide], for which the pIC50 on JAK3 kinase was under 4.30; in assay [1], under 5.00; at IRAK4 it was 8.12. Besides, the “Ratio of JAK3 IC50 to IRAK4 IC50” value on JAK3 kinase was over 6579.

Regarding `CC(C)Nc1c(C(=O)N[C@H]2CC[C@H](C(N)=O)CC2)cnn2cc(-c3ccncc3F)cc12` [Example 89, N-((1r,4r)-4-carbamoylcyclohexyl)-6-(3-fluoropyridin-4-yl)-4-(isopropylamino) pyrrolo[1,2-b]pyridazine-3-carboxamide], the pIC50 is under 4.30 at JAK3 kinase, 5.87 in assay [1] and 8.42 on IRAK4. The “Ratio of JAK3 IC50 to IRAK4 IC50” value at JAK3 kinase is over 13158.

On to `CC(C)Nc1c(C(=O)N[C@H]2CC[C@H](c3nc[nH]n3)CC2)cnn2cc(-c3ccncc3)cc12` [Example 90, N-((1r,4r)-4-(1H-1,2,4-triazol-3-yl)cyclohexyl)-4-(isopropylamino)-6-(pyridin-4-yl)pyrrolo[1,2-b]pyridazine-3-carboxamide], for which the pIC50 was 5.00 on JAK3 kinase, 6.20 in assay [1] and 8.43 at IRAK4. Also, the “Ratio of JAK3 IC50 to IRAK4 IC50” value at JAK3 kinase is on record as 2703.

With `Cc1cc(F)ncc1-c1cc2c(NC(C)C)c(C(=O)N[C@H]3CC[C@H](c4nc[nH]n4)CC3)cnn2c1` [Example 91, N-((1r,4r)-4-(1H-1,2,4-triazol-3-yl)cyclohexyl)-6-(6-fluoro-4-methylpyridin-3-yl)-4-(isopropylamino)pyrrolo[1,2-b]pyridazine-3-carboxamide], the negative logarithm of the IC50 (pIC50) at JAK3 kinase was under 4.30; in assay [1], 5.84; on IRAK4 it was 8.28. Besides, the “Ratio of JAK3 IC50 to IRAK4 IC50” value at JAK3 kinase is recorded as over 9615.

As to `CC(C)Nc1c(C(=O)N[C@H]2CC[C@H](c3nc[nH]n3)CC2)cnn2cc(-c3ccc(F)nc3)cc12` [Example 92, N-((1r,4r)-4-(1H-1,2,4-triazol-3-yl)cyclohexyl)-6-(6-fluoropyridin-3-yl)-4-(isopropylamino)pyrrolo[1,2-b]pyridazine-3-carboxamide], the pIC50 on JAK3 kinase is under 4.30; in assay [1], 5.16; on IRAK4 it was 8.00. Besides, the “Ratio of JAK3 IC50 to IRAK4 IC50” value on JAK3 kinase was over 5000.

As to `CC(C)Nc1c(C(=O)N[C@H]2CC[C@H](c3nc[nH]n3)CC2)cnn2cc(-c3ccncc3F)cc12` [Example 93, N-((1r,4r)-4-(1H-1,2,4-triazol-3-yl)cyclohexyl)-6-(3-fluoropyridin-4-yl)-4-(isopropylamino)pyrrolo[1,2-b]pyridazine-3-carboxamide], the pIC50 at JAK3 kinase is under 4.30; in assay [1], 5.98; at IRAK4, 8.64. Also, the “Ratio of JAK3 IC50 to IRAK4 IC50” value on JAK3 kinase is recorded as over 21739.

As for `CC(=O)N[C@H]1CC[C@H](NC(=O)c2cnn3cc(-c4ccncc4)nc3c2NC(C)C)CC1` [Example 108, N-((1r,4r)-4-acetamidocyclohexyl)-8-(isopropylamino)-2-(pyridin-4-yl)imidazo[1,2-b]pyridazine-7-carboxamide], the results for the pIC50 (at JAK3 kinase; in assay [1]; on IRAK4) were about 4.31, 6.05 and 7.96, respectively. For the same compound, at JAK3 kinase, the “Ratio of JAK3 IC50 to IRAK4 IC50” value is on record as about 4455.
